What was measured:
[1] = Cytotoxicity assay in mammalian cells (MTT), fibroblasts, 72 h; assay type: cell-based; details: mouse, L929 fibroblast cells, pH 7.2; 50 % inhibition of fibroblast growth, 72 h, MTT
Procedure: (§1) The antiproliferative activity was determined in promastigote forms of Leishmania amazonensis (WHOM/BR/75/JOSEFA strain) and epimastigote forms of Trypanosoma cruzi (Y strain). The promastigote forms of L. amazonensis were cultured in Warren medium (brain heart infusion, hemin, and folic acid; pH 7.4) supplemented with 10 % fetal bovine serum (FBS) at 25 °C. The epimastigote forms of T.cruzi were cultured in LIT medium (liver infusion tryptose; hemin, and folic acid; pH 7.4) supplemented with 10 % FBS at 28 °C. Cytotoxicity in mammalian cells was determined in fibroblast line (L929) and macrophages (J774 A1). Fibroblasts were cultured in DMEM medium (pH 7.2) supplemented with 10 % FBS at 37 °C in a 5 % CO2 atmosphere. Macrophages were cultured in RPMI‐1640 (pH 7.2) medium supplemented with 10 % FBS at 37 °C in a 5 % CO2 atmosphere.
(§2) Stock solutions of the compounds were prepared in DMSO and then diluted in the respective medium.
(§3) Fibroblast cell (2.5×10^5 cells.mL^−1) suspensions were prepared in DMEM medium supplemented with 10 % FBS and added to 96‐well plates. Then, the plates were incubated at 37 °C in a CO2 atmosphere for 24 h to obtain confluent cell growth. After incubation, cells were treated with different concentrations of compounds diluted in DMEM for 72 h or left untreated. Macrophage (5×10^5 cells.mL^−1) suspensions were prepared in RPMI‐1640 medium supplemented with 10 % FBS and added to 96‐well plates. Then, the plates were incubated at 37 °C in a CO2 atmosphere for 24 h to obtain confluent cell growth. After incubation, cells were treated with different concentrations of compounds diluted in RPMI‐1640 for 48 h or left untreated. After treatment, the medium was removed, and cells were incubated with MTT (2 mg.mL^−1) for 4 h. Then, DMSO was added for solubilization of the formazan and analyzed with a reading microplate reader (BIO‐TEK PowerWave XS spectrophotometer) at […].[20] The percentage of viable cells was calculated in relation to the untreated control group to determine the cytotoxic concentration in 50 % of the cells (CC50). The control groups of each experiment received the same experimental conditions as the treated groups (cell concentration used, temperature, CO2, and incubation time).

[2] = Cytotoxicity assay in mammalian cells (MTT), macrophages, 48 h; assay type: cell-based; details: mouse, J774 A1 macrophages, pH 7.2; 50 % inhibition of macrophages growth, 48 h, MTT
Procedure: as §1, §2, §3

[3] = system: epimastigote forms of Trypanosoma cruzi (Y strain); assay: Antiproliferative assay (XTT), epimastigote forms, 96 h; assay type: cell-based; details: for IC50: Trypanosoma cruzi, epimastigote form, 96 h, XTT, read-out: T. cruzi IC50; for SIT-F, selectivity index (Fibroblast CC50/T. cruzi IC50): fibroblast vs epimastigote; for SIT-M, selectivity index (Macrophages CC50/T. cruzi IC50): macrophages vs epimastigote
Procedure: as §1, §2
(§4) Promastigote forms (1×10^6 parasites.mL^−1) were cultured in 96‐well plates in the presence and absence of different concentrations of compounds diluted in Warren medium supplemented with 10 % FBS and incubated for 72 h. The epimastigote forms (1×10^6 parasites.mL^−1) were cultured in 96‐well plates in the presence and absence of different concentrations of compounds diluted in LIT medium supplemented with 10 % FBS and incubated for 96 h. After treatment, the parasites were incubated with a solution of 2,3‐bis(2‐methoxy‐4‐nitro‐5‐sulfophenyl)‐2H‐tetrazolium‐5‐carboxanilide (XTT; 0.5 mg.mL^−1) and phenazine methanesulfonate activator (PMS; 0.06 mg.mL^−1) in PBS for 4 h. Then, the absorbance was read in a microplate reader (Bio Tek‐Power Wave XS) at 450 nm.[20] The percentage of viable parasites was calculated in relation to the control in order to determine the concentration that inhibits 50 % of the protozoa (IC50). The control groups of each experiment received the same experimental conditions as the treated groups (cell concentration used, temperature, and incubation time).

[4] = system: promastigote forms of Leishmania amazonensis (WHOM/BR/75/JOSEFA strain); assay: Antiproliferative assay (XTT), promastigote forms, 72 h; assay type: cell-based; details: for IC50: Leishmania amazonensis, promastigote form, 72 h, XTT, read-out: L. amazonensis IC50; for SIL-F, selectivity index (Fibroblast CC50/L. amazonensis IC50): fibroblast vs promastigote; for SIL-M, selectivity index (Macrophages CC50/L. amazonensis IC50): macrophages vs promastigote
Procedure: as §1, §2, §4

SMILES | melting point [°C] | IC50 [3] [µM] | CC50 at 72 h [1] [µM] | CC50 at 48 h [2] [µM] | SIT-F, selectivity index (Fibroblast CC50/T. cruzi IC50) [3] | SIT-M, selectivity index (Macrophages CC50/T. cruzi IC50) [3] | IC50 [4] [µM] | SIL-F, selectivity index (Fibroblast CC50/L. amazonensis IC50) [4] | SIL-M, selectivity index (Macrophages CC50/L. amazonensis IC50) [4]
CCOC(=O)c1noc(-c2ccc(Cl)cc2)c1CNc1ccccc1 [2 da] | 172.9 to 173.4 | 32.9 ± 3.7 | 158 ± 7.7 | 155 ± 3 | 4.80 | 4.70 | 29.9 ± 2.1 | 5.28 | 5.17
COc1ccc(NCc2c(C(=O)N/N=C/c3ccc(-c4cccs4)s3)noc2-c2ccc(Cl)cc2)cc1 [6 dc] | 199.9 to 202.7 | 30.5 ± 1.6 | 398 ± 7.8 | 309 ± 8 | 13.0 | 10.1 | 32.7 ± 3 | 12.16 | 9.45
O=C(N/N=C/c1ccccn1)c1noc(-c2ccc(Cl)cc2)c1CNc1ccccc1 [5 da] | 180.5 to 182.9 | 72.6 ± 3.8 | 298 ± 5.7 | 289 ± 9.5 | 4.10 | 3.98 | 69 ± 8.7 | 4.32 | 4.19
O=C(N/N=C/c1ccccc1)c1noc(-c2ccc([N+](=O)[O-])cc2)c1CNc1ccccc1 [4 aa, 3‐[(2E)‐N'‐(Benzylidene)hydrazinecarbonyl]‐4‐(phenyl)aminomethyl‐5‐(4‐nitrophenyl)isoxazole] | 92.6 to 94.4 | 35.1 ± 4.6 | 118 ± 7.3 | 100 ± 6 |  | 2.86 | 40.7 ± 3.2 | 2.90 | 2.47
NNC(=O)c1noc(-c2ccc(Cl)cc2)c1CNc1ccc(Cl)cc1 [3 db] | 175.9 to 177.8 | 55.7 ± 10.2 | 381 ± 4.2 | 336 ± 5.1 | 6.84 | 6.03 | 59.1 ± 4.6 | 6.44 | 5.68
O=C(N/N=C/c1ccccn1)c1noc(-c2ccccc2)c1CNc1ccc(Cl)cc1 [5 bb] | 209.3 to 211.7 | 26.9 ± 0.9 | 338 ± 8.6 | 301 ± 5.9 | 12.57 | 11.18 | 27.8 ± 4.1 | 12.38 | 11.01
O=C(N/N=C/c1ccccc1)c1noc(-c2ccc(Cl)cc2)c1CNc1ccccc1 [4 da] | 189.3 to 191.8 | 49.7 ± 2.2 | 266 ± 5.9 | 236 ± 9.6 | 5.34 | 4.74 | 48.6 ± 2.8 | 5.46 | 4.85
O=C(N/N=C/c1ccccc1)c1noc(-c2ccc(F)cc2)c1CNc1ccccc1 [4 ca] | 157.7 to 159.6 | 149 ± 10.3 | 814 ± 13.5 | 784 ± 10.6 | 5.47 | 5.29 | 135 ± 11.4 | 6.04 | 5.83
O=C(N/N=C/c1ccccn1)c1noc(-c2ccc(F)cc2)c1CNc1ccc(Cl)cc1 [5 cb] | 202.4 to 203.9 | 39.4 ± 3.1 | 154 ± 7.8 | 112 ± 6.8 | 3.91 | 2.84 | 22.6 ± 5 | 6.81 | 4.96

Continued, in another order:

melting point [°C] | IC50 [3] [µM] | SMILES | CC50 at 72 h [1] [µM] | CC50 at 48 h [2] [µM] | SIT-F, selectivity index (Fibroblast CC50/T. cruzi IC50) [3] | SIT-M, selectivity index (Macrophages CC50/T. cruzi IC50) [3] | IC50 [4] [µM] | SIL-F, selectivity index (Fibroblast CC50/L. amazonensis IC50) [4] | SIL-M, selectivity index (Macrophages CC50/L. amazonensis IC50) [4]
174.1 to 176.8 | 12.1 ± 0.9 | NNC(=O)c1noc(-c2ccc([N+](=O)[O-])cc2)c1CNc1ccc(Cl)cc1 [3 ab] | 98.3 ± 4.1 | 91.7 ± 3.8 | 8.12 | 7.58 | 15.7 ± 0.4 | 6.26 | 5.84
189 to 190.4 | 39.8 ± 3.6 | NNC(=O)c1noc(-c2ccc([N+](=O)[O-])cc2)c1CNc1ccccc1 [3 aa, 3‐Carbohydrazide‐4‐(phenyl)aminomethyl‐5‐(4‐nitrophenyl)isoxazole] | 198 ± 9.5 | 142.8 ± 0.8 | 4.98 | 3.59 | 42.1 ± 1.3 | 4.71 | 3.39
157.7 to 159.6 | 69.5 ± 3.7 | O=C(N/N=C/c1ccccn1)c1noc(-c2ccc(F)cc2)c1CNc1ccccc1 [5 ca] | 403 ± 8.6 | 374 ± 5.8 | 5.79 | 5.38 | 74.8 ± 2.9 | 5.38 | 5.01
178.1 to 181.2 | > 200 | NNC(=O)c1noc(-c2ccc(F)cc2)c1CNc1ccc(Cl)cc1 [3 cb] | 802 ± 11.4 | 694 ± 10.7 |  |  | 172 ± 10.4 | 4.67 | 4.04
167.5 to 169.3 | 71 ± 4.7 | O=C(N/N=C/c1ccccc1)c1noc(-c2ccc(Cl)cc2)c1CNc1ccc(Cl)cc1 [4 db] | 404.7 ± 4 | 395 ± 9.9 | 5.70 | 5.56 | 67.4 ± 3.9 | 6.00 | 5.86
151.3 to 152.4 | 39.5 ± 5.6 | NNC(=O)c1noc(-c2ccccc2)c1CNc1ccccc1 [3 ba] | 189 ± 9 | 110 ± 5.6 | 4.78 | 2.79 | 34.9 ± 2.9 | 5.41 | 3.16
169.9 to 172 | 69.6 ± 3.9 | O=C(N/N=C/c1ccccc1)c1noc(-c2ccccc2)c1CNc1ccccc1 [4 ba] | 409 ± 7.8 | 385.6 ± 3.2 | 5.87 | 5.54 | 76.8 ± 8.7 | 5.32 | 5.02
